Patent publication US20100266691A1, “Agents and Methods to Stimulate Bone Healing” (BATTELLE MEMORIAL INSTITUTE, priority 2009, published 2010)

Tests used:
[1] = test system: Mouse MC3T3-E1 pre-osteoblastic cells; assay: pre-osteoblast chemotaxis trans-well assay; type: cell-based; conditions: for chemotactic effect of LPA in the presence of inhibitor: inhibitor added together with LPA
Method: Mouse MC3T3-E1 pre-osteoblastic cells were seeded into the upper wells of opaque trans-well chambers that had 8.0-micron pores. LPA was added to the growth medium in the lower chamber. The number of cells that migrated through the pores and attached to the underside of the microporous membrane served as a measure of chemotaxis (chemically directed cell migration). Cells were fluorescently labeled with calcein to allow visualization on the undersides of the opaque chambers. Utilizing this assay it was determined that LPA elicited a 6.5 fold increase in pre-osteoblast when compared to cells under control conditions (growth medium in the absence of LPA).

[2] = test system: Mouse MLO-Y4 osteocyte-like cells; assay: osteocyte dendrite outgrowth trans-well assay; type: cell-based
Method: Data are normalized to untreated control cells.
Among the effects of LPA on pre-osteoblasts is the induction of membrane extensions that resemble osteocyte dendrites. An assay was developed to study the ability of LPA to stimulate the outgrowth of dendritic processes from osteocytes in vitro, FIG. 3. Mouse MLO-Y4 osteocyte-like cells were seeded in the upper wells of opaque trans-well chambers having 1.0-micron pores which prevent the passage of whole cells but allow penetration by membrane extensions. Cells were fluorescently labeled with calcein to allow visualization of dendrites that were extended onto the undersides of the opaque chambers. It was determined that the presence of LPA in the lower chamber lead to a 7-fold increase in osteocyte dendrite outgrowth.
It is postulated that LPA enhances dendrite outgrowth in vivo, which can re-establish the osteocyte mechanosensory network during the regeneration of damaged bone.

MC3T3-E1 cells = assay: global gene expression profiling (Affymetrix mouse whole genome microarrays); type: cell-based; conditions: LPA 1.0 μM
Method: LPA also modulates the expression of a large set of pre-osteoblast genes linked to development (FIG. 2). MC3T3-E1 cells were grown in the presence or absence of a physiological level of LPA (1.0 μM). After growth of the cells, total RNA was isolated for use in global gene expression profiling. Gene expression was measured utilizing Affymetrix mouse whole genome microarrays. Data were analyzed using a suite of bioinformatics software. […] As shown, genes involved in cell development are the most statistically significant group affected by LPA.

[3] = test system: drill-hole defects in the cortex of rat femurs; assay: rat femur drill-hole defect healing with PLGA implants (microCT); type: in vivo; conditions: PLGA+12.5 μg LPA vs PLGA+2.0 μg rhBMP2; six weeks post-treatment
From the text: Defect regions (arrows) are enlarged on the right; dotted lines depict the original defect boarders.
The inventor has shown, using rat models, that LPA enhances skeletal regeneration in vivo. The bone growth stimulatory effects of LPA were compared to those of bone morphogenetic protein 2 (BMP-2), which is an FDA approved osteoinductive additive to bone implants. Referring to FIG. 4, drill-hole defects (3-mm diameter) were introduced into the cortex of rat femurs. Implants were fabricated utilizing poly(DL-lactic-co-glycolic acid) copolymers) (PLGA). The femurs were then implanted with either LPA or a therapeutic amount (2 μg) of BMP-2 and were compared to a non-treated control. Bone healing was measured as the rate of closure of the defect as visualized in living animals by micro-computed tomography (microTC). Implants were designed as follows: PLGA alone; PLGA+12.5 μg LPA; PLGA+2.0 μg rhBMP2.
One preferred combination of the invention is LPA and BMP-2. Utilizing a rat model, the affects of LPA and LPA with BMP-2 were studied. Rat femurs were drilled to introduce a defect as set forth for FIG. 4. Implants were prepared as described above with the addition of an implant having PLGA+2.0 μg rhBMP2+12.5 μg LPA. Each corresponding drill drill-hole was implanted with: A) nothing (control); B) LPA; C) BMP-2 or D) LPA+BMP-2.

| Compound | chemotactic effect of LPA in the presence of inhibitor [1] | increase in osteocyte dendrite outgrowth ([2]; LPA in lower chamber, 1.0-micron pores, normalized to untreated control cells) [fold] | stimulation of dendritogenesis ([2]; each concentration tested) | increase in pre-osteoblast chemotaxis compared to cells under control conditions ([1]; LPA in lower chamber, 8.0-micron pores, control = growth medium in the absence of LPA) [fold] | number of genes regulated in LPA-treated cells (MC3T3-E1 cells) [genes] | bone healing (closure of the defect) compared with BMP-2 [3] |
| --- | --- | --- | --- | --- | --- | --- |
| Cc1noc(-c2ccc(CSCCC(=O)O)cc2)c1NC(=O)OC(C)c1ccccc1Cl (stereo not shown) [Ki16425] | decreased chemotactic effect | – | – | – | – | – |
| CCCCCCCC/C=C\CCCCCCCC(=O)OC[C@@H](O)COP(=O)([O-])O.[Na+] [LPA, lysophosphatidic acid] | – | 7 | significantly stimulated dendritogenesis | 6.5 | 513 | stimulatory properties of LPA exceed those of BMP-2 |
| pertussis toxin | decreased chemotactic effect | – | – | – | – | – |
